What was measured:
washed platelets [1] = assay: Inhibitory effect on collagen-induced platelet aggregation (antagonistic activity), rat washed platelets; assay type: cell-based; conditions: 0.05 h, collagen 4 μg/ml as inducer, light transmission 3 minutes after inducer, read-out: Inhibition for Platelet Aggregation IC50
Experimental: (§1) From the abdominal artery of a male rat (Sprague-Dowley, 8 weeks old) was collected 10 ml of blood with a plastic syringe containing 1.5 ml of ACD (85 mM of sodium citrate, 70 mM of citric acid, 110 mM of glucose) and 20 μg of prostaglandin E1. The blood is placed in a plastic test tube, shaken moderately turning and centrifuged for 10 minutes at 160×g to give platelet rich plasma (PRP). To the prepared PRP was added apyrase (25 μg/ml) and the mixture was layered on 40% bovine serum albumin. The resulting mixture is centrifuged at 1200×g for 25 minutes. The platelet pellets suspended in a small amount of a buffer (137 mM of NaCl, 2.7 mM of KCl, 1.0 mM of MgCl2, 3.8 mM of NaH2 PO4, 3.8 mM of Hepes, 5.6 mM of glucose, 0.035% of bovine serum albumin, pH 7.35) was applied on 10 ml of Sephaose 2B column and eluted with such a buffer to prepare washed platelets.
(§2) The platelet aggregation reaction was measured by an aggregometer (NKK HEMA TRACER 1 MODEL PAT-6A.6M, Niko bioscience). In a measuring cuvette was placed 245 μl of the washed platelets of which platelet concentration was adjusted to 5×10^5 / μl and set in the aggregometer. The adjusted washed platelet was stirred (1000 rpm) at 37° C. and 3.8 μl of 0.1M of CaCl2 was added thereto. One minute later, 0.5 μl of a solution of a test compound in dimethylsulfoxide was added and 2 minutes later, 1 μl of collagen (Collagen reagent Horm®, HORMON-CHEMIE Munchen GMBH, final concentration 4 μg/ml) as an inducer for platelet aggregation was added. The platelet aggregation was monitored with an aggregometer in terms of the increase and decrease in light transmission.
Concentration of 50% inhibition was calculated from the inhibitory rate of aggregation (this correspondes to light transmission of a sample which is measured at 3 minutes after the addition of a platelet aggregating inducer, provided that light transmissions of the washed platelets and the buffer samples are taken as 0% and 100%, respectively.)

washed platelets [2] = assay: Partial agonistic activity (shape change of rat platelets); assay type: cell-based; conditions: Platelet, decrease in light transmission by test compound itself, 50% of maximal agonistic activity of reference compound, read-out: Activity of Partial Agonist EC50
Experimental: as §1, §2
The measurement of partial agonistic activity was carried out according to the method shown for platelet aggregation. To the washed platelets was added 0.1M of CaCl2 and one minute later a test compound was added thereto. The decrease in light transmission caused by the test compound itself was measured to estimate the activity.

[3] = Acute toxicity, intravenous, mice; conditions: mouse, in vivo, male SclddY mice, tail vein injection in saline, mortality within 24 hours, Probit method
Experimental: Male SclddY mice (4-weekage, 23-27 g) were used. Each experimental group consists of 5 animals. After injecting the test compound dissolved in saline into a tial vein, the mortality within 24 hours was obtained as an LD50 value by the Probit method.

Row | Compound | IC50 (washed platelets [1]) [nM] | EC50 (washed platelets [2]) [nM] | LD50 at 24 h [3] [mg/kg]
1 | Cc1ccc(S(=O)(=O)N[C@H]2[C@H]3CC[C@H](C3)[C@@H]2/C=C\CCCC(=O)O)cc1 [Ib-c, (1R,2R,3S,4S)-sodium (5Z)-6-[3-(p-tolylsulfonylamino)bicyclo[2.2.1]hept-2-yl]-5-hexenoate] | 6 | > 1000 | 
2 | O=C(O)CCC/C=C\[C@H]1[C@@H]2CC[C@@H](C2)[C@@H]1NS(=O)(=O)c1ccccc1 [Ia-c, (1R,2R,3S,4S)-sodium (5Z)-6-(3-phenylsulfonylaminobicyclo[2.2.1]hept-2-yl)-5-hexenoate] | 6 | > 1000 | 237
3 | O=S(=O)(N[C@H]1[C@H]2CC[C@H](C2)[C@@H]1/C=C\CCCc1nnn[nH]1)c1ccccc1 [If-c, (1R,2R,3S,4S)-3-phenylsulfonylamino-2-[(1Z)-5-(5-tetrazolyl)-1-pentenyl]bicyclo[2.2.1]heptane] | 4 | > 1000 | 209

The remaining compounds from weak to strong by IC50 (washed platelets [1]), led by results:

Row | IC50 (washed platelets [1]) [nM] | EC50 (washed platelets [2]) [nM] | Compound | LD50 at 24 h [3] [mg/kg]
4 | 6 | 150 | O=C(O)CCC/C=C\[C@H]1[C@@H]2CC[C@@H](C2)[C@@H]1NS(=O)(=O)c1ccc(O)cc1 [Ic-c, (1R,2R,3S,4S)-sodium (5Z)-6-[3-(4-hydroxyphenylsulfonylamino)bicyclo[2.2.1]hept-2-yl]-5-hexenoate] | 
5 | 5 | 300 | O=C(O)CCC/C=C\[C@H]1[C@@H]2CC[C@@H](C2)[C@@H]1NS(=O)(=O)c1ccc(Cl)cc1 [Ie-c, (1R,2R,3S,4S)-sodium (5Z)-6-[3-(4-chlorophenylsulfonylamino)bicyclo[2.2.1]hept-2-yl]-5-hexenoate] | 
6 | 5 | 130 | O=C(O)CCC/C=C\[C@H]1[C@@H]2CC[C@@H](C2)[C@@H]1NS(=O)(=O)c1ccc(Br)cc1 [Id-c, (1R,2R,3S,4S)-sodium (5Z)-6-[3-(4-bromophenylsulfonylamino)bicyclo[2.2.1]hept-2-yl]-5-hexenoate] | 
7 | 2 | 1 | Cc1ccc(S(=O)(=O)N[C@H]2[C@H]3CC[C@H](C3)[C@@H]2C/C=C\CCCC(=O)O)cc1 [Rf. Compd., reference compound] | 

— US5002972A, “Compound and composition of substituted hexenoic acid derivatives useful for treating thromboxane A2 mediated diseases” (Shionogi & Co., Ltd., priority 1989, dated 1991)
